Values joined by “and” are separate entries in the source; they are usually repeats but may differ in a detail not shown here. Identical values can stand only once.
Target: T1, neuronal-type nicotinic receptors (Bos taurus, UniProt Q07263+Q8SPU6)
T1 construct: monolayer cultures of bovine adrenal chromaffin cells; endogenous in cells; host or cells: bovine adrenal chromaffin cells (primary monolayer cultures)
Format: cell-based, Bovine

T1 sequence (Q07263 22-495): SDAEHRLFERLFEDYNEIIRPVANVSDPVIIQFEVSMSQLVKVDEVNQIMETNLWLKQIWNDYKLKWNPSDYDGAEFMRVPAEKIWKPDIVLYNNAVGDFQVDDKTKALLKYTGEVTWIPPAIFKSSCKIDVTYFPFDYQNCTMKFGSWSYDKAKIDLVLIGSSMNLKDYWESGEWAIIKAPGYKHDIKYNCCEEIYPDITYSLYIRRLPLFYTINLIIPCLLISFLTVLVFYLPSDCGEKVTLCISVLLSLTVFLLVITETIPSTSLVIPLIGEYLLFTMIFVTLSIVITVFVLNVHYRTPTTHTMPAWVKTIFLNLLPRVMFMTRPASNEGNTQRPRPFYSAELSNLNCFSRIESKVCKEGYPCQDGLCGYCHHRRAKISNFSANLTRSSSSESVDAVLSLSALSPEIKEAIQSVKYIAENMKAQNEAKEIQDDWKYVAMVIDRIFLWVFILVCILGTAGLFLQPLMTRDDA
T1 sequence (Q8SPU6 20-496): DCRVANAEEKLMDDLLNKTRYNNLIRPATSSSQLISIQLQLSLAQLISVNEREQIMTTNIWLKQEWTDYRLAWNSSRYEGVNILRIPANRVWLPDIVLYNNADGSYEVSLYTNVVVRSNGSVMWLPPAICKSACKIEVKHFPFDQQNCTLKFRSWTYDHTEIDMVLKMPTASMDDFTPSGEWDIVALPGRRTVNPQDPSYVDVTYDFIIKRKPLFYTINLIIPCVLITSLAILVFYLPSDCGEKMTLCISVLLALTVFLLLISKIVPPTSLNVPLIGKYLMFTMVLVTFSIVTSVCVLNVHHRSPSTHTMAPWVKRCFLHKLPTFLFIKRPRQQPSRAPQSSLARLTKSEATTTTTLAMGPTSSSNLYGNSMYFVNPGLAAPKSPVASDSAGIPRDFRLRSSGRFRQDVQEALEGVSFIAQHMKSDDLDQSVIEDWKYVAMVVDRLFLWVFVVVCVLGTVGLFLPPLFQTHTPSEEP

CN1CCCC1c1cccnc1 (centres unmarked) [NICOTINE, nicotine, reference compound]
Adrenaline Release, 1st-4th (individual wells): 4.31% and 4.52% (2×) and 4.48%
Adrenaline Release, mean: 4.46%
Noradrenaline Release, 1st-4th (individual wells): 6.62% and 6.89% (2×) and 6.99%
Noradrenaline Release, mean: 6.85%
noradrenaline released, basal release (0.72%) subtracted: 6.13%

— US8362204B2 (priority 2006, dated 2013)
